The record followed here is patent US9957247B2, “SecA inhibitors and methods of making and using thereof” (Georgia State University Research Foundation, Inc., priority 2012, dated 2018).

Values after ≈ are worked out from the molar mass of the structure shown. Like-named read-outs stand apart in the source and are kept apart here.

Test [1] addresses T1, BsSecA (Bacillus subtilis, UniProt P28366). As to the kind of experiment: biochemical. The test is classed as biochemical, B. subtilis.
Another test has as its target PaSecA (Pseudomonas aeruginosa, UniProt Q9LCT3). Nature of the test: cell-based. The test is classed as cell-based. Conditions: IC50, Ion Channel activity, PASecA, Table 1.
The target of test [2] is T1, BsSecA. As to the kind of experiment: cell-based. Further details: species or system B. subtilis. The note with it: IC50, Ion Channel activity, BsSecA, Table 1.
The target of another test is MsSecA (Mycolicibacterium smegmatis, UniProt P71533). As to the kind of experiment: SecA-liposomes ion-channel activity in oocytes, MsSecA. The format is cell-based. Conditions: Table 1.
Sequence of MsSecA (P71533 whole entry): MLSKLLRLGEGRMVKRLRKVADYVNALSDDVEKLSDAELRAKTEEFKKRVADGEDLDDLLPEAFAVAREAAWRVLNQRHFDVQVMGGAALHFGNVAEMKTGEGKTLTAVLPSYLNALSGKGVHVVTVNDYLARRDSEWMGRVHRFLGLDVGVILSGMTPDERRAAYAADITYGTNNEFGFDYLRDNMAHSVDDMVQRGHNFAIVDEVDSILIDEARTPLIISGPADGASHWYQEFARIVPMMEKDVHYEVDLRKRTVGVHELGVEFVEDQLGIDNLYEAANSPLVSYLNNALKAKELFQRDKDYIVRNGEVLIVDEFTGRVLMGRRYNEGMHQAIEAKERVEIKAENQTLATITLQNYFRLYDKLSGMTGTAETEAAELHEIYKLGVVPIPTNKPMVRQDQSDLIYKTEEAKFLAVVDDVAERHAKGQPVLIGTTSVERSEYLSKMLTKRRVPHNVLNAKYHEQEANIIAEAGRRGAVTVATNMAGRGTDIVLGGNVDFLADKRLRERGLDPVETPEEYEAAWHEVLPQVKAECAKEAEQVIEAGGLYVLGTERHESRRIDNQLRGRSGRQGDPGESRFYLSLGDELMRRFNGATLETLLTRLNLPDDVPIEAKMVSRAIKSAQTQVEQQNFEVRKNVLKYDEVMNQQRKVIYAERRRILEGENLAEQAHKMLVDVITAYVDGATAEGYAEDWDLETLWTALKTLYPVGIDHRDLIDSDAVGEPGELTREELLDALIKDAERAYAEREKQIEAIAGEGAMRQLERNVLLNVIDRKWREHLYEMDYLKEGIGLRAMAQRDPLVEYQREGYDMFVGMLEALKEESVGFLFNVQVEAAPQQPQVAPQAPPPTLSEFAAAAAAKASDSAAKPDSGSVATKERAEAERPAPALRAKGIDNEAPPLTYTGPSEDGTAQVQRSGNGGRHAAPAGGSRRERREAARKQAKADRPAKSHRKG
The subject of a further test is B. anthracis Sterne. Nature of the test: microbe, parasite or virus in culture. The format is cell-based. Conditions: Bacillus anthracis, read-out: Bacteriostatic MIC95, B. anthracis Sterne.
The next test relates to S. pyogenes, MGAS5005. As to the kind of experiment: MIC95, S. pyogenes MGAS5005. The format is cell-based. Conditions: Streptococcus pyogenes, MGAS5005; read-out: MIC95, S. pyogenes MGAS5005.
The subject of test [3] is secretion of α-hemolysin, enterotoxin B and TSST-1 by S. aureus Mu50. The test is classed as cell-based.
Test [4] concerns the target T2, SaSecA1 (Staphylococcus aureus, UniProt O06446).
T2 sequence (O06446 1-843): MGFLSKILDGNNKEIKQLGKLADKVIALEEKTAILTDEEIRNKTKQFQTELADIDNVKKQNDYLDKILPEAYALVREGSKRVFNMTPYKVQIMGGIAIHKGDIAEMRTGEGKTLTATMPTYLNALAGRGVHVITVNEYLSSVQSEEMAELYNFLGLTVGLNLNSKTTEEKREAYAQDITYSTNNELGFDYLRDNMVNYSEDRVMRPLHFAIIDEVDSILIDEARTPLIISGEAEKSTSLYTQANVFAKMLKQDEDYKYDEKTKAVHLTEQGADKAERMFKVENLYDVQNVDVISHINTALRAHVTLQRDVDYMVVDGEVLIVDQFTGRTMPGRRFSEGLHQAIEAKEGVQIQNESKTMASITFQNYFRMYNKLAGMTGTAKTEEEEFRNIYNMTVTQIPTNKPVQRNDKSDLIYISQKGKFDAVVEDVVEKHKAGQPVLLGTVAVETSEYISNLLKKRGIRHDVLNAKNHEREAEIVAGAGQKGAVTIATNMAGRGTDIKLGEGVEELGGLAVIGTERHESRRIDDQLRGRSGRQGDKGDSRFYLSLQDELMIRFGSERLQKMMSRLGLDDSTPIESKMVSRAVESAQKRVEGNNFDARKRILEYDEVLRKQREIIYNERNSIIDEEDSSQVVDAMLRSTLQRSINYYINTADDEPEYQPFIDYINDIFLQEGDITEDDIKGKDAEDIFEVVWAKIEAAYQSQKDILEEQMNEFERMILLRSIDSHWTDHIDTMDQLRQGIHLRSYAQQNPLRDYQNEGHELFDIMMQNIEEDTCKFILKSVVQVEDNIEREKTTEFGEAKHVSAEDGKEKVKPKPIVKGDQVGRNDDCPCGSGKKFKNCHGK
The note with it: read-out: IC50, ATPase activity, SaSecA1; Table 7.

The target of another test is EcSecA (Escherichia coli, UniProt P10408). As to the kind of experiment: cell-based.
Sequence of EcSecA (P10408 whole entry): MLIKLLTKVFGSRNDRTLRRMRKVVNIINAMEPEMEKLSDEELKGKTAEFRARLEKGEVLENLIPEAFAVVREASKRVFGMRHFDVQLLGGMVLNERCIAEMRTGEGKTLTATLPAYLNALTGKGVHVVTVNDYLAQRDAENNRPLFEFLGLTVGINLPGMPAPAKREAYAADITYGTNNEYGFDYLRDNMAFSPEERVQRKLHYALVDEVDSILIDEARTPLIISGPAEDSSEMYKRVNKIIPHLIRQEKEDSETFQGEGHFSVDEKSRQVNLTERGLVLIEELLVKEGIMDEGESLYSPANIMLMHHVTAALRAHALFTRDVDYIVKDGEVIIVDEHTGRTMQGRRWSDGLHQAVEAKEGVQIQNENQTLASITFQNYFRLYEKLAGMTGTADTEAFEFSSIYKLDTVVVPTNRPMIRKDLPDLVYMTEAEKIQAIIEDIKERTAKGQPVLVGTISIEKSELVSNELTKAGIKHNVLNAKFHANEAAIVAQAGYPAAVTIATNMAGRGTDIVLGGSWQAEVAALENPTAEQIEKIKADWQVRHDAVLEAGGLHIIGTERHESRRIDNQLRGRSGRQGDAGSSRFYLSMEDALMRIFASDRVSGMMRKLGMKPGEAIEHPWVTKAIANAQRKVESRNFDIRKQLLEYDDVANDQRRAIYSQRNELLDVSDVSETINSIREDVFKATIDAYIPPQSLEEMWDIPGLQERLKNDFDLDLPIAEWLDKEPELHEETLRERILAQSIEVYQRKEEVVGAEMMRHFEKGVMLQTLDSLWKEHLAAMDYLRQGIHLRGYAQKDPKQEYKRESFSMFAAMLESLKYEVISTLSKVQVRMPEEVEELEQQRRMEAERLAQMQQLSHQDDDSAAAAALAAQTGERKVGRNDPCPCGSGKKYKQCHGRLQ
Test [5] has as its target T2, SaSecA1. Nature of the test: cell-based.
The subject of test [6] is S. aureus Mu50. As to the kind of experiment: Bactericidal effect, S. aureus Mu50. Conditions: 9 μg/ml, 1 hour at 37° C., FIG. 5.
The next test deals with S. aureus 6538. As to the kind of experiment: Bactericidal effect, S. aureus 6538. The note with it: 9 μg/ml, 1 hour at 37° C., FIG. 5.
In test [7] the test system is S. aureus Mu50. As to the kind of experiment: Bacteriostatic effect, S. aureus Mu50. The note with it: for MIC: Staphylococcus aureus.
A further test addresses BsSecA2. The note with it: read-out: IC50, Intrinsic ATPase, BsSecA2; Table 1.
The target in the next test is T3, SaSecA2 (Staphylococcus aureus, UniProt Q2FUW6).
T3 sequence (Q2FUW6 1-796): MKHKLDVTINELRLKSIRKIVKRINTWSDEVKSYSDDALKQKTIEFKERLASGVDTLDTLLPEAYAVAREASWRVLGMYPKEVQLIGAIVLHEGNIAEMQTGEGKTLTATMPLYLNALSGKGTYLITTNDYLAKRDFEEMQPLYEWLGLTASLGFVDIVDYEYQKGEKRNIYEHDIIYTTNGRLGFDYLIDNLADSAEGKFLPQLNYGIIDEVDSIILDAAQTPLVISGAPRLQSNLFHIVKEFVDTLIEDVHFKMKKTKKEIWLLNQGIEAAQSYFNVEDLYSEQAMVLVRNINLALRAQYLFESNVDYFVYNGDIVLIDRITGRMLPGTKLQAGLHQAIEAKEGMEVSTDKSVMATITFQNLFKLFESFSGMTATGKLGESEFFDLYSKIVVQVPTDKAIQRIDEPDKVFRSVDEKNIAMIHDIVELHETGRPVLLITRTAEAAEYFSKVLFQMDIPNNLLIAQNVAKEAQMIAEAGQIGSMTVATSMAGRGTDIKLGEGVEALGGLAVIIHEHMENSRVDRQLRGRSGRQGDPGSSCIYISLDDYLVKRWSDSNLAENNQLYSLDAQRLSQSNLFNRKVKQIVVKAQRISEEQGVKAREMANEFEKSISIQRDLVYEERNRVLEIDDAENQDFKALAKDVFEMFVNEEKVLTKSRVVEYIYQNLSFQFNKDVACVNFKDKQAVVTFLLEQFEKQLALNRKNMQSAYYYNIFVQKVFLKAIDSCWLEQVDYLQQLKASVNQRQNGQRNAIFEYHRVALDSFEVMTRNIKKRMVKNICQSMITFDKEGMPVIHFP
As to the kind of experiment: ATPase activity assay (malachite green), SaSecA2. The note with it: IC50, ATPase activity, SaSecA2, Table 7.

The test system of test [8] is S. aureus deletion strains (NorA−, MepA−) and strains (NorA++, MepA++) with over-expressed efflux pumps. As to the kind of experiment: Antimicrobial effect with deletion or over expression of efflux pumps in S. aureus.

T1 sequence (P28366 whole entry): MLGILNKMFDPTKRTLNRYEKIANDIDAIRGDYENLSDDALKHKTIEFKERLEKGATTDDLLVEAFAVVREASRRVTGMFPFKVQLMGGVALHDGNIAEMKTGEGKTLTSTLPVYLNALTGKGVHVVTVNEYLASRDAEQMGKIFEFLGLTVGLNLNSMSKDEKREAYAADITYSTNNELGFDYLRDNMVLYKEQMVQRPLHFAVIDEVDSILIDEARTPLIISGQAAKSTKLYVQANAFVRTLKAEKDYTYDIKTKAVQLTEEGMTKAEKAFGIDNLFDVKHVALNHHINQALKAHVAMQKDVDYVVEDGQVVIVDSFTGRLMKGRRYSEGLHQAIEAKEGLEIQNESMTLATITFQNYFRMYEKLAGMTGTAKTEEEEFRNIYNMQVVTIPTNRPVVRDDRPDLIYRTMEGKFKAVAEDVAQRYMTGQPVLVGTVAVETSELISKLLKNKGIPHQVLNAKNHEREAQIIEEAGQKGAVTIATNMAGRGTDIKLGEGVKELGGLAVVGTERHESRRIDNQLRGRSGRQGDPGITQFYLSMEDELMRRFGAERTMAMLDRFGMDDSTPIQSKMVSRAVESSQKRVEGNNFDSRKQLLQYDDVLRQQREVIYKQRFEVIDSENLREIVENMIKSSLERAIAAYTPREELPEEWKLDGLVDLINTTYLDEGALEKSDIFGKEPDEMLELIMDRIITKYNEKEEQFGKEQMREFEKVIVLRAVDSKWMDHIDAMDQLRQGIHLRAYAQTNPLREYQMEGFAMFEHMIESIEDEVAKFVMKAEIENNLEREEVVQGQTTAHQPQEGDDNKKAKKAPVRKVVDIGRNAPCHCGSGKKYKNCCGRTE
Sequence of PaSecA (Q9LCT3 whole entry): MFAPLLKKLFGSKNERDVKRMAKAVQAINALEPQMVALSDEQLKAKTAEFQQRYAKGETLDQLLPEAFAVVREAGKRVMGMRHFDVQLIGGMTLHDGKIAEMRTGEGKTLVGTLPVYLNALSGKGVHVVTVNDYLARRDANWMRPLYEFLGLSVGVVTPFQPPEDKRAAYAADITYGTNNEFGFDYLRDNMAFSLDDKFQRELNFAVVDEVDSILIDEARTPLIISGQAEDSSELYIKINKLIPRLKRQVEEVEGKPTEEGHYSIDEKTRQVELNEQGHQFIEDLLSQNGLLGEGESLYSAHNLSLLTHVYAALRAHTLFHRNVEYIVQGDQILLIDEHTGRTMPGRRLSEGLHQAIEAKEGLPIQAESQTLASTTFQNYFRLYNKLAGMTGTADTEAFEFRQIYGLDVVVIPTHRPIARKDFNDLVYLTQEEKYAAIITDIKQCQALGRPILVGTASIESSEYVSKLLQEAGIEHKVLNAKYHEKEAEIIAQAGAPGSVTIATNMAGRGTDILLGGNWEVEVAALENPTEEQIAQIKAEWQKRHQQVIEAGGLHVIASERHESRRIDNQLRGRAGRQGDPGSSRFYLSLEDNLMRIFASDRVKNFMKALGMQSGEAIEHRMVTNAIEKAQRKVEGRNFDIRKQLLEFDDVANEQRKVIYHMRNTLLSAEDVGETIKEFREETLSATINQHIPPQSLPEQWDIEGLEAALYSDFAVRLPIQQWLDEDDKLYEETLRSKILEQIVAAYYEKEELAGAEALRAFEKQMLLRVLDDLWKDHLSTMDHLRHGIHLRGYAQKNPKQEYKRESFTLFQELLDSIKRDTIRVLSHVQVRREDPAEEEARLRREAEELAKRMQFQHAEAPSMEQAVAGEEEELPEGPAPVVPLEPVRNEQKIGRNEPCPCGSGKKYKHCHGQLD

Usually IC50 stands for the concentration that inhibits the measured activity by half. In the case of `CCCCCCC1c2ccc(O)cc2Oc2cc(O)ccc21` [SCA-50], the IC50 on BsSecA [1] is 33 µM; against PaSecA, 3 µM; at BsSecA [2] it was 2.5 µM; against MsSecA, 2.5 µM; at SaSecA1 [4] it was 20 µM; at EcSecA, 2.3 µM. Moreover, the IC50 against SaSecA1 [5] was 1.1 µM; against SaSecA1 [5] (IC50, Ion-channel activity, SaSecA1, Table 7) it was 1.1 µM; on BsSecA2, 20 µM; at SaSecA2, 17.5 µM. Besides, the MIC with B. anthracis Sterne came to 1.7 µg/mL (≈ 5.7 µM); in the test on S. pyogenes, MGAS5005, 6.25 µM (≈ 1.86 µg/mL); in the test with S. aureus Mu50 [7] (MU50, read-out: Bacteriostatic MIC95, S. aureus Mu50, Table 2), 2.4 µg/mL; in the test with S. aureus Mu50 [7] (MU50, read-out: Bacteriostatic effect MIC, S. aureus Mu50, Table 10 and Example 4), 4 µg/mL; with S. aureus Mu50 [7] (MU50, read-out: Bacteriostatic effect, MIC, S. aureus Mu50, Table 8), 3.7 µg/mL; in the test with S. aureus Mu50 [7] (MU50, read-out: MIC95 against drug resistant S. aureus Mu50), 2.4 µM. In addition, the “Amount of α-hemolysin, enterotoxin B, and TSST-1 in the supernatant” value in test [3] is “significantly decreased”. In addition, the “Bactericidal activity, log numbers killed, S. aureus Mu50” value with S. aureus Mu50 [6] was “more than 3 log numbers”. In addition, the “Bactericidal activity, log numbers killed, S. aureus 6538” value with S. aureus 6538 is given as 2 log numbers. Also, the “MIC fold less than the MIC of ampicillin, kanamyin, erythromycin, and rifampicin” value with S. aureus Mu50 [7] (S. aureus Mu50) stood at 250 fold. In the test on S. aureus Mu50 [7] (Table 10 and text of Example 4), the “Bacteriostatic effect MIC, S. aureus Mu50” value stood at 3.7 µg/mL. For the same compound, the “Change of MIC on overexpression or deletion of NorA or MepA” value in test [8] is given as “did not significantly change”.
